According to ChEMBL document CHEMBL1201862, “PubChem BioAssay data set” (2004):
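Where inhibition never reached the appropriate level, the endpoint shown equals the highest concentration tested. Otherwise, values were interpolated linearly from a five-concentration, 48-hour dose response in 96-well plates. GI50 marks 50% less growth.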 Active and inactive are the calls of the source. Rule as the data show it: active = GI50 up to about 1.1 µM and inactive = higher.

Columns and labels:
Experiment in all cases: NCI tumour cell line growth inhibition, 48 h
[1] = tested on: UACC-257
[2] = tested on: RXF 393
[3] = tested on: SK-OV-3
[4] = tested on: TK-10
[5] = tested on: RPMI-8226
[6] = tested on: SNB-19
[7] = tested on: HT-29
[8] = tested on: CCRF-CEM
[9] = tested on: T47D
[10] = tested on: HOP-62
[11] = tested on: MDA-MB-231
[12] = tested on: HL-60
[13] = tested on: HCC 2998
[14] = tested on: MOLT-4
[15] = tested on: Hs-578T
[16] = tested on: NCI-H522
[17] = tested on: DU-145
[18] = tested on: OVCAR-4
[19] = tested on: SF-295
[20] = tested on: NCI-H460
[21] = tested on: U-251
[22] = tested on: UACC-62
[23] = tested on: HOP-92
[24] = tested on: BT-549
[25] = tested on: OVCAR-3
[26] = tested on: HCT-116
[27] = tested on: A498
[28] = tested on: M14
[29] = tested on: SR
[30] = tested on: NCI-H23
[31] = tested on: SK-MEL-5
[32] = tested on: NCI/ADR-RES
[33] = tested on: SNB-75
[34] = tested on: SK-MEL-2
[35] = tested on: SK-MEL-28
[36] = tested on: COLO 205
[37] = tested on: UO-31
[38] = tested on: K562
[39] = tested on: LOX IMVI
[40] = tested on: Malme-3M
[41] = tested on: MDA-MB-435
[42] = tested on: EKVX
[43] = tested on: IGROV-1
[44] = tested on: PC-3
[45] = tested on: MDA-N
[46] = tested on: 786-0
[47] = tested on: CAKI-1
[48] = tested on: ACHN
[49] = tested on: SF-268
[50] = tested on: NCI-H226
[51] = tested on: KM12
[52] = tested on: SW-620
[53] = tested on: OVCAR-8
[54] = tested on: HCT-15
[55] = tested on: SN12C
[56] = tested on: A549
[57] = tested on: MCF7
[58] = tested on: SF-539
[59] = tested on: OVCAR-5

## Nc1ccc(-c2nc3ccccc3s2)cc1CO
[1]
  GI50: > 87.7 µM (inactive)
[2]
  GI50: > 100 µM (inactive)
[3]
  GI50: > 100 µM (inactive)
[4]
  GI50: > 100 µM (inactive)
[5]
  GI50: 49.1 µM (inactive)
[6]
  GI50: 50.6 µM (inactive)
[7]
  GI50: > 100 µM (inactive)
[8]
  GI50: > 51.2 µM (inactive)
[9]
  GI50: 33.2 µM (inactive)
[10]
  GI50: 31.5 µM (inactive)
[11]
  GI50: > 70 µM (inactive)
[12]
  GI50: 39 µM (inactive)
[13]
  GI50: > 100 µM (inactive)
[14]
  GI50: 16.5 µM (inactive)
[15]
  GI50: > 83.6 µM (inactive)
[16]
  GI50: 52.8 µM (inactive)
[17]
  GI50: > 94.8 µM (inactive)
[18]
  GI50: > 39.2 µM (inactive)
[19]
  GI50: 36.5 µM (inactive)
[20]
  GI50: 68.4 µM (inactive)
[21]
  GI50: > 76.4 µM (inactive)
[22]
  GI50: 6.79 µM (inactive)
[23]
  GI50: > 54.8 µM (inactive)
[24]
  GI50: 47.3 µM (inactive)
[25]
  GI50: > 100 µM (inactive)
[26]
  GI50: 74.6 µM (inactive)
[27]
  GI50: < 0.01 µM (active)
[28]
  GI50: 64.6 µM (inactive)
[29]
  GI50: > 84.3 µM (inactive)
[30]
  GI50: 60.5 µM (inactive)
[31]
  GI50: 49.4 µM (inactive)
[32]
  GI50: > 79.8 µM (inactive)
[33]
  GI50: > 100 µM (inactive)
[34]
  GI50: > 85.7 µM (inactive)
[35]
  GI50: > 100 µM (inactive)
[36]
  GI50: > 100 µM (inactive)
[37]
  GI50: 10.5 µM (inactive)
[38]
  GI50: 6.05 µM (inactive)
[39]
  GI50: 84.3 µM (inactive)
[40]
  GI50: > 100 µM (inactive)
[41]
  GI50: > 87.5 µM (inactive)
[42]
  GI50: 7.46 µM (inactive)
[43]
  GI50: > 68.5 µM (inactive)
[44]
  GI50: 66.8 µM (inactive)
[45]
  GI50: > 86.3 µM (inactive)
[46]
  GI50: > 100 µM (inactive)
[47]
  GI50: 2.9 µM (inactive)
[48]
  GI50: 13.5 µM (inactive)
[49]
  GI50: > 73.5 µM (inactive)
[50]
  GI50: < 0.01 µM (active)
[51]
  GI50: 41.7 µM (inactive)
[52]
  GI50: > 100 µM (inactive)
[53]
  GI50: > 77.6 µM (inactive)
[54]
  GI50: 61.8 µM
[55]
  GI50: 45.8 µM (inactive)
[56]
  GI50: > 58.7 µM (inactive)

## O=C(c1ccccc1)C1C(c2ccccc2)N1S(=O)(=O)c1ccccc1 (stereo not drawn)
[57]
  GI50: > 100 µM (inactive)
[2]
  GI50: > 100 µM (inactive)
[3]
  GI50: > 100 µM (inactive)
[4]
  GI50: > 100 µM (inactive)
[58]
  GI50: > 100 µM (inactive)
[5]
  GI50: > 100 µM (inactive)
[7]
  GI50: > 100 µM (inactive)
[8]
  GI50: > 100 µM (inactive)
[9]
  GI50: > 100 µM (inactive)
[10]
  GI50: > 100 µM (inactive)
[11]
  GI50: > 100 µM (inactive)
[13]
  GI50: > 100 µM (inactive)
[14]
  GI50: > 100 µM (inactive)
[15]
  GI50: > 100 µM (inactive)
[16]
  GI50: > 100 µM (inactive)
[17]
  GI50: > 100 µM (inactive)
[18]
  GI50: > 100 µM (inactive)
[19]
  GI50: > 100 µM (inactive)
[21]
  GI50: > 100 µM (inactive)
[22]
  GI50: > 100 µM (inactive)
[24]
  GI50: > 100 µM (inactive)
[25]
  GI50: > 100 µM (inactive)
[26]
  GI50: > 100 µM (inactive)
[28]
  GI50: > 100 µM (inactive)
[30]
  GI50: > 100 µM (inactive)
[31]
  GI50: > 100 µM (inactive)
[32]
  GI50: > 100 µM (inactive)
[33]
  GI50: > 100 µM (inactive)
[34]
  GI50: > 100 µM (inactive)
[35]
  GI50: > 100 µM (inactive)
[36]
  GI50: > 100 µM (inactive)
[37]
  GI50: > 100 µM (inactive)
[38]
  GI50: > 100 µM (inactive)
[39]
  GI50: > 100 µM (inactive)
[40]
  GI50: > 100 µM (inactive)
[41]
  GI50: > 100 µM (inactive)
[42]
  GI50: > 100 µM (inactive)
[43]
  GI50: > 100 µM (inactive)
[59]
  GI50: > 100 µM (inactive)
[44]
  GI50: > 100 µM (inactive)
[45]
  GI50: > 100 µM (inactive)
[47]
  GI50: > 100 µM (inactive)
[49]
  GI50: > 100 µM (inactive)
[50]
  GI50: > 100 µM (inactive)
[51]
  GI50: > 100 µM (inactive)
[52]
  GI50: > 100 µM (inactive)
[53]
  GI50: > 100 µM (inactive)
[54]
  GI50: > 100 µM
[55]
  GI50: > 100 µM (inactive)
[56]
  GI50: > 100 µM (inactive)

## Cc1nc2nc3c(ncn3COCCO)c(O)n2c1C(c1ccccc1)(c1ccccc1)c1ccccc1
[1]
  GI50: 14.1 µM (inactive)
[57]
  GI50: 10.2 µM (inactive)
[2]
  GI50: 12.8 µM (inactive)
[3]
  GI50: 15.9 µM (inactive)
[4]
  GI50: 16.6 µM (inactive)
[58]
  GI50: 6.25 µM (inactive)
[5]
  GI50: 12 µM (inactive)
[6]
  GI50: 14.8 µM (inactive)
[7]
  GI50: 11.7 µM (inactive)
[8]
  GI50: 13.2 µM (inactive)
[9]
  GI50: 9.27 µM (inactive)
[10]
  GI50: 18.6 µM (inactive)
[11]
  GI50: 14.5 µM (inactive)
[12]
  GI50: 14.1 µM (inactive)
[13]
  GI50: 13.6 µM (inactive)
[14]
  GI50: 8.2 µM (inactive)
[15]
  GI50: 21.2 µM (inactive)
[16]
  GI50: 12.6 µM (inactive)
[17]
  GI50: 12.5 µM (inactive)
[18]
  GI50: 13.6 µM (inactive)
[19]
  GI50: 17.3 µM (inactive)
[20]
  GI50: 15.2 µM (inactive)
[21]
  GI50: 14.1 µM (inactive)
[22]
  GI50: 11.4 µM (inactive)
[23]
  GI50: 16.7 µM (inactive)
[24]
  GI50: 0.6 µM (active)
[25]
  GI50: 2.96 µM (inactive)
[26]
  GI50: 15.1 µM (inactive)
[27]
  GI50: 18.3 µM (inactive)
[28]
  GI50: 16.3 µM (inactive)
[30]
  GI50: 4.63 µM (inactive)
[31]
  GI50: 15.4 µM (inactive)
[32]
  GI50: 1.55 µM (inactive)
[33]
  GI50: 12.8 µM (inactive)
[34]
  GI50: 14.5 µM (inactive)
[35]
  GI50: 20 µM (inactive)
[36]
  GI50: 14.6 µM (inactive)
[37]
  GI50: 30.3 µM (inactive)
[38]
  GI50: 9.25 µM (inactive)
[39]
  GI50: 13.1 µM (inactive)
[40]
  GI50: 18.3 µM (inactive)
[41]
  GI50: 10.9 µM (inactive)
[42]
  GI50: 19.4 µM (inactive)
[43]
  GI50: 14 µM (inactive)
[59]
  GI50: 18.7 µM (inactive)
[44]
  GI50: 12.9 µM (inactive)
[45]
  GI50: 13.5 µM (inactive)
[46]
  GI50: 17.1 µM (inactive)
[47]
  GI50: 60 µM (inactive)
[48]
  GI50: 18 µM (inactive)
[49]
  GI50: 16 µM (inactive)
[51]
  GI50: 12.2 µM (inactive)
[52]
  GI50: 19.5 µM (inactive)
[53]
  GI50: 14 µM (inactive)
[54]
  GI50: 1.6 µM
[55]
  GI50: 16.5 µM (inactive)
[56]
  GI50: 18.5 µM (inactive)
